Several values for one entry are separate records, joined by “and”; a condition that tells them apart may be missing. Identical values can stand only once.
Key:
[1] = Ethinylestradiol pharmacokinetics alone and with ritonavir in healthy female volunteers; format: in vivo, human
Procedure: This was an open-label, single-center study in healthy female volunteers who had not received an oral contraceptive for a minimum of six months prior to study start. Subjects received the first dose of oral contraceptive containing 50 μg of ethinyl estradiol on Day 1. […] On Day 15, 300 mg q12h was administered, 400 mg q12h was given on Day 16, and 500 mg q12h was administered thereafter. […] Blood samples for ethinylestradiol concentrations were collected for 48 h after each of the oral contraceptive doses.
Twenty-seven subjects were enrolled in the study. […] Data from these four subjects were therefore excluded from summary statistics. The mean ±SD age of the 23 subjects who completed the study was 34±10 yrs (range 19 to 45 yrs), the mean ±SD weight was 67.3±10.9 kg (range 50.8 to 90.3 kg), and the mean ±SD height was 167±7 cm (range 155 to 180 cm).
Ethinylestradiol was supplied as Demulen@ 1/50-21 tablets (G.D. Searle & Co.) containing 50 μg of ethinylestradiol and 1 mg of ethynodiol diacetate and was administered at 8:00 a.m. on Day 1 and Day 29 with approximately 240 mL of water and within 15 minutes of a meal or snack.
Subjects were confined for 64 hours from Day-1 (day prior to the initial dose) through the first 48 hour blood collection (morning of Day 3) and for 64 hours from Day 28 through the second 48 hour blood collection (morning of Day 31). In addition, subjects came to the clinical testing unit as outpatients for meals, dosing and other study activities twice daily for a total of 14 consecutive days, starting on Day 15. Strenuous activity during confinement was not permitted. During confinement, subjects abstained from all food and beverages except for the scheduled meals and snacks provided in the study. Water was available ad libitum. All meals were standardized with regard to content during confinement. Breakfast, lunch, and dinner were served at approximately 7:30 a.m., 1:00 p.m. and 7:30 p.m. and snacks were provided at approximately 10:00 p.m., except on Days-1 and 28 when the snack was served at 9:45 p.m. An 8 hour fast was required prior to all blood collections for clinical laboratory analyses. The sequence of starting breakfast and dinner on each dosing day during confinement was maintained to the minute such that the time intervals relative to dosing were the same among all subjects.
Blood samples (7 mL) were collected for serum ethinyl estradiol concentrations at the following times relative to the dose on Day 1 and Day 29: prior to (0 h) and at 0.5, 1, 2, 3, 4, 6, 8, 10, 12, 18, 24, 30, 36, and 48 h post-dose. […] All plasma and serum samples were packed with dry ice and shipped to the analytical sites.
Serum samples were analyzed for ethinylestradiol concentrations at Pharmaco LSR, Richmond, Va.
Analysis of serum samples for determination of ethinyl estradiol was performed at Pharmaco LSR, Richmond, Va. Ethinylestradiol serum concentrations were determined using a gas chromatography/mass spectrometry (GC/MS) method. 17α-ethinylestradiol and its corresponding isotopically labeled internal standard were isolated from human serum by buffering the serum to pH 8.6 and then extracting with an ethyl ether/methylene chloride mixture. The organic layer was exchanged into aqueous base, washed with hexane and then acidified and extracted with methylene chloride. […] This method has been validated over 17α-ethinylestradiol concentrations ranging from 2.00 to 256 pg/mL for a 1.0 mL serum volume, with a minimum quantitation limit of 2.00 pg/mL. […]

[2] = one study, subjects taking atazanavir; cited from earlier work
[3] = test system: bilirubin conjugation in human microsomes; details: in vitro system of human microsomes; cited from earlier work
UGT1A1 isoform = target: T1, UGT1A1 isoform (Homo sapiens, UniProt P22309); details: human cells transfected with the UGT1A1 isoform; cited from earlier work
T1 sequence (P22309 26-533): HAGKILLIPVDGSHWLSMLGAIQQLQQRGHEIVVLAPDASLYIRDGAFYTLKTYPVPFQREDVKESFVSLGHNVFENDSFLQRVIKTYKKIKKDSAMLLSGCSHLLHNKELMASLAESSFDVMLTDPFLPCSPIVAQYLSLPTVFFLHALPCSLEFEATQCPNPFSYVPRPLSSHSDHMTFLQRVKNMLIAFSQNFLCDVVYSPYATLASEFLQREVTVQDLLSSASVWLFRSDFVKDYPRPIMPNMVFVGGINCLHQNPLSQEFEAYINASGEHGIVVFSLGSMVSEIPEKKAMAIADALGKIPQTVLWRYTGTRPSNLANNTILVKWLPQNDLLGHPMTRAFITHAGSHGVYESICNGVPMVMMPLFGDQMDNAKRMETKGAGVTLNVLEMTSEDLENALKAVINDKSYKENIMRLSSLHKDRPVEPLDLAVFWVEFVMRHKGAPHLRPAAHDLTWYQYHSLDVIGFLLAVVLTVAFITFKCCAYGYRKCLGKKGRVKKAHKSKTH

[4] = test system: UDP-glucuronosyltransferase 1A (UGT 1A); test: Affymetrix Rat U34 microarray of liver RNA after oral ritonavir; format: in vivo, Sprague-Dawley rats
UGT1A1 = test: Hepatic 17α-ethinylestradiol glucuronidation activity in liver microsomes of treated rats; details: both male and female rats
[5] = test system: bilirubin-conjugating activity; details: indinavir treatment; cited from earlier work
[6] = Mean ± SD, n = 23, single 50 μg ethinylestradiol dose, alone (Day 1) or on Day 29 during ritonavir 500 mg q12h, serum
[7] = 1-Day Studies, 20 mg/kg oral, liver RNA, 20 mg/kg
[8] = 1-Day Studies, 50 mg/kg oral, liver RNA, 50 mg/kg
[9] = 3-Day Studies, 50 mg/kg oral daily, liver RNA, 50 mg/kg

## C#C[C@]1(O)CC[C@H]2[C@@H]3CCc4cc(O)ccc4[C@H]3CC[C@@]21C [Ethinylestradiol, 17α-ethinylestradiol]
[1]; [6]
  Ethinylestradiol AUC∞: 1.67 ± 0.377 ng·h/mL
  Ethinylestradiol Cmax: 0.104 ± 0.024 ng/mL
  Ethinylestradiol Tmax: 4.0 ± 1.7 h
  Ethinylestradiol β (terminal elimination rate constant): 0.0407 ± 0.0082 h⁻¹
[1]; single dose of oral contraceptive alone
  time at which serum ethinylestradiol concentrations peaked post-dose: approximately 4 h

## COC(=O)N[C@H](C(=O)N[C@@H](Cc1ccccc1)[C@@H](O)CN(Cc1ccc(-c2ccccn2)cc1)NC(=O)[C@@H](NC(=O)OC)C(C)(C)C)C(C)(C)C [Atazanavir]
[2]
  subjects exhibiting unconjugated hyperbilirubinemia: 57%
[3]
  inhibition of bilirubin conjugation (result in words): inhibits bilirubin conjugation in the micromolar range
UGT1A1 isoform
  inhibition of bilirubin conjugation (result in words): inhibits bilirubin conjugation in the micromolar range

## CC(C)c1nc(CN(C)C(=O)N[C@H](C(=O)N[C@@H](Cc2ccccc2)C[C@H](O)[C@H](Cc2ccccc2)NC(=O)OCc2cncs2)C(C)C)cs1 [ritonavir, Ritonavir]
[4]; 1-Day Studies, 20 mg/kg oral, liver RNA
  Fold change, UDP-glucuronosyltransferase 1 family, member 1 (1st probe sequence): 1.63
[4]; [7]
  Fold change, 3-methylcholanthrene-inducible UDP-glucuronosyltransferase: 1.83 and 1.54
  Fold change, UDP-glucuronosyltransferase 1 family, member 1 (2nd probe sequence): 1.68 and 1.51
  Fold change, UDP-glucuronosyltransferase 1 family, member 1 (3rd probe sequence): 1.8 and 1.52
[4]; 1-Day Studies, 50 mg/kg oral, liver RNA
  Fold change, UDP glucuronosyltransferase, exon 1.: 2.43
[4]; [8]
  Fold change, 3-methylcholanthrene-inducible UDP-glucuronosyltransferase: 1.63 and 2.1
  Fold change, UDP-glucuronosyltransferase 1 family, member 1 (1st probe sequence): 1.68 and 1.63
  Fold change, UDP-glucuronosyltransferase 1 family, member 1 (2nd probe sequence): 2.12 and 2.05
  Fold change, UDP-glucuronosyltransferase 1 family, member 1 (3rd probe sequence): 1.75 and 2.12
[4]; [9]
  Fold change, 3-methylcholanthrene-inducible UDP-glucuronosyltransferase: 1.54 and 1.85
  Fold change, UDP-glucuronosyltransferase 1 family, member 1 (3rd probe sequence): 1.31 and 1.33
[4]; dose levels of 100 mg/kg and higher, after 1 and 3 days of treatment
  UGT1A levels for all probe sets: consistent increase
UGT1A1
  glucuronidation of 17α-ethinylestradiol, a UGT1A1 substrate (result in words): significantly increase

## CC(C)(C)NC(=O)[C@@H]1CN(Cc2cccnc2)CCN1C[C@@H](O)C[C@@H](Cc1ccccc1)C(=O)N[C@H]1c2ccccc2C[C@H]1O [Indinavir]
[5]
  cause of elevations in serum-unconjugated bilirubin (result in words): direct inhibition of bilirubin-conjugating activity
